Source: patent publication US11492325B2, “Compounds as inhibitors of sodium channels” (Human BioMolecular Research Institute, priority 2016, dated 2022)

Assays:
[1] = Metabolic stability in human liver microsomes; type: in vitro ADME
Summary of the method: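 Liver microsomes (rat, mouse, dog or human; 0.4-0.5 mg protein) incubated with 50 μM compound in 100 mM potassium phosphate pH 7.4 with NADPH-generating system and 3 mM MgCl2. Parent loss followed by HPLC-UV; half-life and kapp from normalized peak area versus time.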

[2] = Metabolism in human hepatic S9
Male BALBc mice = conditions: mice, 100 mg/kg
From the text: Male BALBc mice (20-22 g) were used throughout these studies. The animals were maintained in a temperature-controlled room with 12-hr periods of light and darkness and had continuous access to water and animal food. […] Groups contained 2-4 animals.

[3] = tested on: isolated perfused aged rat heart exposed to hydrogen peroxide; experiment: Aged rat heart perfusion model of arrhythmia (H2O2, ex vivo); conditions: 10 μM, 30 min after perfusion, continuous H2O2 (0.1 mM)
Experimental: FIG. 1. Initiation of Early After Depolarizations-Mediated Ectopic Ventricular Beats and Ventricular Fibrillation in an Isolated Perfused Aged Rat Heart Exposed to hydrogen peroxide.
Conduction velocity (CV), action potential duration (APD) and responsiveness to drugs was measured in ex-vivo rat heart preparations (FIG. 1). We chose a rat heart model to test for the effect of (R)-82 (i.e., (R)-Dd, Example 4) to decrease arrhythmias because CV and APD are preserved in buffer-perfused rat hearts up to […]. In contrast, in this model, continuous presence (perfusion) of H2O2 (0.1 mM) produces early after depolarizations (EADs) and ectopic ventricular beats 6 min after exposure that degenerates to ventricular tachycardia (VT) and ventricular fibrillation (VF) after 12 min (FIG. 1). Left untreated, the heart would die within 45 mins. […] The conclusion is that (R)-82 is more efficacious than the currently used standard of care.

CYP3A5 = CYP3A5 (Homo sapiens, UniProt P20815); experiment: Metabolism with highly purified CYP3A5 (HPLC); conditions: 50 min incubation
Experimental: (§1) A typical incubation contained rat, mouse, dog or human liver microsomes (0.4-0.5 mg of protein), 100 mM potassium phosphate buffer (pH7.4), 50 μM test compound, an NADPH-generating system consisting of 0.5 mM NADP^+, 0.5 mM glucose-6-phosphate, 1 IU/mL glucose-6-phosphate dehydrogenase, 1 mg/mL diethylenetriaminepentaaceticacid (DETAPAC), and 3 mM MgCl2 in a final incubation volume of 0.25 mL. […] After centrifugation at 3000 rpm for 5 min, the organic fraction was collected, the solvent was removed with a stream of argon and the residue was reconstituted in 125 μL of MeOH and 125 μL H2O, mixed thoroughly, centrifuged at 13,000 rpm for 5 min and analyzed by high performance liquid chromatography. Samples were run on a Hitachi D-7000 HPLC system using a L-7100 analytical pump, L-7400 UV-Visible variable wavelength detector, and L-7600 automatic sample injector. […] Disappearance of the analyte was monitored over time. A plot of the area under the curve for the normalized analyte versus time afforded the half-life values and kapp.
(§2) Accordingly, we examined the metabolism of leads with highly purified CYPs with an HPLC method (Example 8).

CYP2D6 = CYP2D6 (Homo sapiens, UniProt P10635); experiment: Metabolism with highly purified CYP2D6 (HPLC); conditions: 50 min incubation
Experimental: as §1, §2

[4] = Metabolism in mouse hepatic S9; conditions: 0.4 mg protein/incubation; 30 mins, 37° C.; nmol metabolism/incubation
Experimental: as §1
Microsomes contain CYPs and FMO metabolic enzymes. S9 contains soluble enzymes (i.e., aldehyde oxidase, MAO, etc.).

Human FMO1 = molecular target: T1, Human FMO1 (Homo sapiens, UniProt Q01740); experiment: Metabolism with human FMO1 (nmol metabolism/incubation); conditions: 15 μg enzyme/incubation; 30 mins, 37° C.; nmol metabolism/incubation
T1 sequence (Q01740 1-532): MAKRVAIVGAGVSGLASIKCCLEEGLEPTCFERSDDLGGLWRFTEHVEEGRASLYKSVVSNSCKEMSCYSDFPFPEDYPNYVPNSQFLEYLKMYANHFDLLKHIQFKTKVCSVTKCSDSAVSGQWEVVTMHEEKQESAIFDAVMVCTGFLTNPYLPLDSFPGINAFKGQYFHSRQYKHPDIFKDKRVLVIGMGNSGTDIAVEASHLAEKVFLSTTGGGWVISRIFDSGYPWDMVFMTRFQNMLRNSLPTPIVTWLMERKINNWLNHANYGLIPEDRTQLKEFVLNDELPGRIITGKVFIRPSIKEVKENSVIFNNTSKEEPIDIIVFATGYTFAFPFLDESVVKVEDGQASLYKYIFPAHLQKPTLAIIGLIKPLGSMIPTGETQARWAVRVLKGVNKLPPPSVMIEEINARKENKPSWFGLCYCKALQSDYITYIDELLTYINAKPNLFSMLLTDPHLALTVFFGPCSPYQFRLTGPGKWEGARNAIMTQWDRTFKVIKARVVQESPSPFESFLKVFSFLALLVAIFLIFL

CYP3A4 = CYP3A4 (Homo sapiens, UniProt P08684); experiment: Metabolism with highly purified CYP3A4 (HPLC)
FMO = experiment: Metabolism by FMO

CYP3A4, sequence (P08684 whole entry): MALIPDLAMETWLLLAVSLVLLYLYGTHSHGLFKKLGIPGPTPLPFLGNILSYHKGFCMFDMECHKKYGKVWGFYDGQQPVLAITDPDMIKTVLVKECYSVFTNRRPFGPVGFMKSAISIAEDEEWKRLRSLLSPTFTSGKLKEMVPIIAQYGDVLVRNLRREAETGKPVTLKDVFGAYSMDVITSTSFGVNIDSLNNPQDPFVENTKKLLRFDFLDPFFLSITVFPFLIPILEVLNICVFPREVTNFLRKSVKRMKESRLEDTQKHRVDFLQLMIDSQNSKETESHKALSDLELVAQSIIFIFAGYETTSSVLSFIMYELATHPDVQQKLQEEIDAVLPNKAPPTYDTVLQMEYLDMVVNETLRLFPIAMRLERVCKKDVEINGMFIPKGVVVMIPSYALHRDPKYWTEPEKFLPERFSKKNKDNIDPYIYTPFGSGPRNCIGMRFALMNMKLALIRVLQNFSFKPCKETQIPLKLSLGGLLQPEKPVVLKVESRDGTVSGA
CYP2D6, sequence (P10635 whole entry): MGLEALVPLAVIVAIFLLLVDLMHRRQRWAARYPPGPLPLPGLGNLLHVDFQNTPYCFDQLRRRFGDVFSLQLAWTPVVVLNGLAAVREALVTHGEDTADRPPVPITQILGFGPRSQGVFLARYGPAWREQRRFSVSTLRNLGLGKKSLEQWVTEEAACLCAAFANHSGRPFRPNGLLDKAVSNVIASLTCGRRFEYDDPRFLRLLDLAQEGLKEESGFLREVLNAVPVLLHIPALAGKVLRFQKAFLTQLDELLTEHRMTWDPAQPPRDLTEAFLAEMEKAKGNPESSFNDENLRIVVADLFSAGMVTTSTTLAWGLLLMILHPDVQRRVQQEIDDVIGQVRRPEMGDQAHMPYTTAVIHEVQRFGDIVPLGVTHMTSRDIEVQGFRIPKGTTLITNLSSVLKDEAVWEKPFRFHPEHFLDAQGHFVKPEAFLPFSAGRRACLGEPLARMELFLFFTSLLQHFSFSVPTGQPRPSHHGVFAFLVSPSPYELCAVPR
CYP3A5, sequence (P20815 whole entry): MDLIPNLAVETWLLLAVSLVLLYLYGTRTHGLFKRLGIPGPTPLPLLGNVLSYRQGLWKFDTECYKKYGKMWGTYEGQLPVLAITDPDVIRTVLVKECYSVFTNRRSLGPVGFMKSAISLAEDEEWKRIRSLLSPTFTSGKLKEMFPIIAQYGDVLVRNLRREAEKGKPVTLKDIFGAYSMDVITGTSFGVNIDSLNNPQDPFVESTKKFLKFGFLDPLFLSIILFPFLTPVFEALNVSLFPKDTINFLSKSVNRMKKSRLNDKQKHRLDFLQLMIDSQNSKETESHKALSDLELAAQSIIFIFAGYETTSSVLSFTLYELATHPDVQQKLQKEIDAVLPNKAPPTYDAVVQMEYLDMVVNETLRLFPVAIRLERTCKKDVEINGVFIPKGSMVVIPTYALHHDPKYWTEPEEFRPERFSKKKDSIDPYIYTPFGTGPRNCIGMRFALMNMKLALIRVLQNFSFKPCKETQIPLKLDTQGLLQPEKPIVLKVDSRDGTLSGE

| Structure (SMILES) | Liver Microsomes T1/2 ([1]; human, microsomes) [h] | Liver S-9, remaining after 1 hr ([2]; human, s9, 1 h) [% after 1 hr] | Behavior Effect (R)-enantiomer (Male BALBc mice) | behavioral effects at 100 mg/kg (Male BALBc mice; enantiomers) | resolution of arrhythmias [3] | metabolism in human liver microsomes judged by HPLC [1] | metabolism in human liver S-9 judged by HPLC [2] | nmols metabolized, CYP3A5 (CYP3A5) [nmols] | pmols product/μg CYP/min, CYP3A5 (CYP3A5) [pmols product/μg CYP/min] | nmols metabolized, CYP2D6 (CYP2D6) [nmols] | pmols product/μg CYP/min, CYP2D6 (CYP2D6) [pmols product/μg CYP/min] | Mouse liver S-9 (nmol/incub) [4] [nmol/incub] | Human FMO1 (nmol/incub) (Human FMO1) | Human CYP3A4 (nmol/incub) (CYP3A4; 3 pmol enzyme/incubation, 30 mins, 37° C., nmol metabolism/incubation) | nmols metabolized, CYP3A4 (CYP3A4; 50 min incubation) [nmols] | pmols product/μg CYP/min, CYP3A4 (CYP3A4; 50 min incubation) [pmols product/μg CYP/min] | metabolism by FMO (FMO) |
| --- | --- | --- | --- | --- | --- | --- | --- | --- | --- | --- | --- | --- | --- | --- | --- | --- | --- |
| Cl.NC(COc1ccccc1C(F)(F)F)c1ccccc1 (stereo in doubt) [(R)-82] | 2.27 | >95 | No detectable effect | no apparent behavioral effects | complete resolution of all forms of arrhythmias to normal sinus rhythm | – | – | – | – | – | – | – | – | – | – | – | – |
| Cc1cccc(C)c1OCC(C)N (racemic) [Mexiletine, reference compound] | – | – | – | – | – | not metabolized very extensively | not metabolized very extensively | 34.2 | 48.8 | 4.04 | 6.0 | 5.2 | 6.7 | 3.0 | 32.4 | 46.2 | metabolized by FMO |
